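Cultured in 96-well plates, cells were exposed to test compound for 48 hours across five concentrations. The concentration for full growth arrest is given as TGI.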 Where a SMILES comes first, the peptide text is derived from it. The star is where a group is joined. Fmoc = O=C(OCC1c2ccccc2-c2ccccc21)*; Boc = CC(C)(C)OC(=O)*
Assays:
Test in all cases: NCI-60 cell line screen, 48 h
UACC-257 melanoma = system: UACC-257 melanoma
A498 renal = system: A498 renal
M14 melanoma = system: M14 melanoma
RXF 393 renal = system: RXF 393 renal
HCC-2998 colon = system: HCC-2998 colon
HOP-92 NSCLC = system: HOP-92 NSCLC
UACC-62 melanoma = system: UACC-62 melanoma
MDA-MB-231 breast = system: MDA-MB-231 breast
DU-145 prostate = system: DU-145 prostate
HS 578T breast = system: HS 578T breast

Compound	TGI (UACC-257 melanoma)	TGI (A498 renal)	TGI (M14 melanoma)	TGI (RXF 393 renal)	TGI (HCC-2998 colon)	TGI (HOP-92 NSCLC)	TGI (UACC-62 melanoma)	TGI (MDA-MB-231 breast)	TGI (DU-145 prostate)	TGI (HS 578T breast)
OCCN1CCN2C=C(C3CCCC4N(CCO)CCN34)CCC21 (stereo unspecified)	> 100 µM	> 100 µM	> 100 µM	> 85 µM	> 100 µM	> 100 µM	> 93.9 µM	–	–	–
CSc1ccc(/C=C2\N=C(c3ccccc3)N(c3nc4cc(C)c(C)cc4s3)C2=O)cc1	> 100 µM	–	75.8 µM	62.3 µM	82.4 µM	73.3 µM	> 100 µM	> 100 µM	> 100 µM	92.1 µM
CC(C)Cc1cc2c(cc1O)CCC1C2CC[C@@]2(C)C1CC[C@@H]2O (stereo partly specified)	35.1 µM	35.5 µM	19.3 µM	16.3 µM	36.1 µM	26.6 µM	21.2 µM	20 µM	23.1 µM	23.7 µM
COc1ccccc1/C=C1\NC(=S)N(/C=C2\C(=O)Oc3ccccc3C2=O)C1=O	> 100 µM	–	> 100 µM	> 100 µM	> 100 µM	53.3 µM	> 100 µM	> 100 µM	> 100 µM	> 100 µM
CSc1nc2c(ncn2C2OCC(O)C(O)C2O)c(=O)n1C (stereo unspecified)	> 100 µM	> 100 µM	–	> 100 µM	> 100 µM	> 100 µM	> 100 µM	–	–	–
C=C(CN1CC2C[C@](C(=O)OC)(c3cc4ccccc4[nH]3)C1C(OC)C2OC)S(=O)(=O)c1ccccc1 (stereo partly specified)	8.5 µM	–	9.36 µM	10.1 µM	3.73 µM	8.33 µM	14.8 µM	10.9 µM	14.1 µM	10.9 µM
O=C(O)CC(Sc1ccccc1)c1ccccc1 (stereo unspecified)	–	> 100 µM	> 100 µM	> 100 µM	–	> 100 µM	> 100 µM	> 100 µM	> 100 µM	> 100 µM
COP(=O)(OC)C(O)CC(C)C (stereo unspecified)	> 100 µM	> 100 µM	> 100 µM	> 100 µM	> 100 µM	–	> 100 µM	> 100 µM	> 100 µM	–
O=C(O)c1ccc(C2SCc3nc4ccccc4n32)cc1 (stereo unspecified)	> 100 µM	> 100 µM	> 100 µM	> 100 µM	> 100 µM	> 100 µM	–	> 100 µM	> 100 µM	> 100 µM
O=C(c1ccc(Cl)cc1)N(C(=S)OCc1ccccn1)c1ccccc1	> 100 µM	> 100 µM	> 100 µM	56.6 µM	–	–	> 100 µM	> 100 µM	> 100 µM	> 100 µM
O=C(NCCNCCCNC(=O)c1cc(-c2ccccc2)nc2ccccc12)c1cccc(OCc2ccccc2)c1OCc1ccccc1	3.28 µM	2.98 µM	3.1 µM	–	2.59 µM	3.23 µM	3.61 µM	3.21 µM	3.26 µM	–
C/C(=N\Nc1nc2cccnc2s1)c1ccccn1	–	> 100 µM	–	19.9 µM	3.18 µM	–	–	38.6 µM	> 100 µM	–
C=C[C@]1(C)CCC2=C(CCC3C2(C)CCC[C@@]3(C)COC(C)=O)C1 (stereo partly specified)	53 µM	54.3 µM	40.3 µM	37.8 µM	31.8 µM	35 µM	45.8 µM	–	–	–
COc1ccc(C2CC3(c4ccccc4)ON=C(c4ccccc4)N3c3ccccc3S2)cc1 (stereo unspecified)	> 100 µM	> 100 µM	> 100 µM	> 100 µM	> 100 µM	–	> 100 µM	> 100 µM	> 100 µM	> 100 µM
Cc1c2ccncc2c(C)c2c1[nH]c1ccc(OCC(F)(F)F)cc12	3.42 µM	–	3.39 µM	3.46 µM	–	–	–	–	–	–
CC(=O)OC1COC(N2C(=O)C(=O)c3cc(Br)ccc32)C(OC(C)=O)C1OC(C)=O (stereo unspecified)	> 100 µM	> 100 µM	> 100 µM	> 100 µM	> 100 µM	> 100 µM	> 100 µM	–	–	–
O=Cc1ccc(CCl)cc1	36.5 µM	85.8 µM	33.4 µM	31 µM	–	52.5 µM	27.3 µM	–	–	–
CCCCCC/C=C1\CCC(CN2CCOCC2)C1=O (stereo unspecified)	29.3 µM	35.2 µM	28.1 µM	–	35.3 µM	34.7 µM	32.1 µM	–	–	–
O=C(OCc1ccccc1)N(CCCCN(CCCNCc1ccccc1)C(=O)OCc1ccccc1)CCCNCc1ccccc1	1.92 µM	–	–	–	0.933 µM	2.82 µM	3.19 µM	2.56 µM	2.55 µM	–
COC(=O)CCC(C)C1CCC2C3C(C[C@H](OC(C)=O)[C@]12C)[C@@]1(C)CCC2(C[C@H]1C[C@H]3OC(C)=O)OOC1(CC[C@]3(C)C4C[C@H](OC(C)=O)[C@]5(C)C(C(C)CCC(=O)OC)CCC5C4[C@H](OC(C)=O)C[C@@H]3C1)OO2 (stereo partly specified)	> 100 µM	–	> 100 µM	> 100 µM	> 100 µM	–	–	> 100 µM	> 100 µM	> 100 µM
CC(=O)OC12c3ccccc3-c3ccccc3C1C1C(=O)OC(=O)C12 (stereo unspecified)	> 10 µM	> 10 µM	> 10 µM	> 10 µM	> 10 µM	> 10 µM	–	> 10 µM	> 10 µM	> 10 µM
COc1cc(C2C(Cl)C(=O)N2NC(=O)c2ccc(N)cc2)cc(Br)c1O (stereo unspecified)	35.9 µM	59 µM	29.2 µM	–	24.3 µM	39.8 µM	30.4 µM	–	–	–
COC(=O)C1=C(C)C=C(N2CCOCC2)C(C(=O)OC)C1c1ccccc1 (stereo unspecified)	> 10 µM	> 10 µM	> 10 µM	> 10 µM	> 10 µM	> 10 µM	–	> 10 µM	> 10 µM	> 10 µM
Nc1cc(=O)n(-c2ccccc2)c(=S)n1-c1ccccc1	> 100 µM	> 100 µM	> 100 µM	> 100 µM	> 100 µM	–	> 100 µM	–	–	–
CC(C)(C)OC(=O)NCCCCC(NC(=O)C(Cc1c[nH]c2ccccc12)NC(=O)OCC1c2ccccc2-c2ccccc21)C(=O)N1CCCC1C(=O)NCC(N)=O (stereo unspecified) (Fmoc-WK(Boc)PG-NH2; configuration not given here)	> 100 µM	–	> 100 µM	> 100 µM	> 100 µM	> 100 µM	> 100 µM	> 100 µM	> 100 µM	> 100 µM

Reference: PubChem BioAssay (NCI)
